For one data set, the system named is Hsp90. The arrangement: method as in PMID 22538015. To be noted: read-out: Hsp90 Affinity binding; cited from earlier work.
The target of another data set is P-gp (Homo sapiens, UniProt P08183). Kind of data set: Rhodamine 123 accumulation assay (P-gp activity, flow cytometry). It is filed as cell-based. Also noted: P-gp overexpressing multidrug resistant DLD1-TxR cells were selected by continuous exposure to stepwise increasing concentrations of paclitaxel from DLD1 cells; endogenous in cells; host or cells: NCI-H460/R and DLD1-TxR (drug-selected MDR human cancer cells). To be noted: MDR NCI-H460/R and DLD1-TxR cells, 30 min, one concentration per compound (100 nM-10 µM), Figure 3a. The method, then:
To study the effect of Hsp90 inhibitors on P-gp activity in MDR cancer cells, intracellular accumulation of the P-gp substrate rhodamine 123 (Rho 123) was analyzed by flow cytometry after 30 min treatment (Figure 3a). A well-known inhibitor of P-gp activity, tariquidar (TQ), was included as a positive control.
The accumulation of Rho 123, a fluorescent P-gp substrate, was measured by flow cytometry. The intensity of the fluorescence is proportional to Rho 123 accumulation in the cell. All cell lines were seeded in adherent 6-well plates and grown overnight. DLD1-TxR and NCI-H460/R cells were treated for 30 min with the following concentrations of Hsp90 inhibitors: 500 nM compound 3, 1 µM compound 4, 10 µM compound 5, 500 nM compound 6, 500 nM compound 7, 1 µM compound 8, 500 nM compound 9, 1 µM compound 10, 1 µM compound 13, 10 µM compound 14, 100 nM compound 15. TQ (10 nM) was used as a positive control for Rho 123 accumulation. Rho 123 (5 μM) was simultaneously added with the investigated compounds and the cells were incubated at 37 °C in 5% CO2 for 30 min. The cells were then trypsinized, pelleted by centrifugation, washed with PBS and placed in ice-cold PBS. The samples were kept on ice in the dark until the analysis on CyFlow Space Partec flow cytometer (Sysmex Partec GmbH, Görlitz, Germany). The fluorescence of Rho 123 was detected on fluorescence channel 1 (FL1-H) at 530 nm. A minimum of 10,000 events were collected for each sample and the obtained results were analyzed using Summit software.
For orientation: In flow cytometry, cells or beads pass a laser one at a time.

Another data set relates to MRC-5 cells. The data set is described as follows: MTT assay, normal embryonic lung fibroblasts MRC-5. Format: cell-based, human. To be noted: for IC50: Homo sapiens, MRC5, MTT, 72 h, normal fibroblasts, read-out: Cell growth inhibition IC50, MRC-5; for Relative Selectivity: IC50 in MRC-5 cells / average IC50 of four cancer cell lines. The method, then:
A series of 3-aryl-naphtho[2,3-d]isoxazole-4,9-diones were synthesized (Scheme 1, Figure 1) and their growth inhibition activity was tested in vitro on human non-small cell lung carcinoma NCI-H460, colorectal carcinoma DLD1 and their corresponding MDR cells (NCI-H460/R and DLD1-TxR, respectively), as well as normal embryonic lung fibroblasts MRC-5. The differences in cell growth inhibition between cancer and normal cells obtained by the MTT assay after 72 h treatment are presented in Table 1. The effect of compounds is presented as IC50 values that correspond to the 50% of cell growth inhibition.
(§1) Cell viability was assessed by the MTT assay (AppliChem GmbH, Darmstadt, Germany). Cells grown in 25 cm^2 tissue flasks were trypsinized and 1000 cells/well were seeded into flat-bottomed 96-well tissue culture plates and incubated overnight. Subsequently, the cells were treated with increasing concentrations of Hsp90 inhibitors for 72 h: compound 3 (0.1–2.5 µM), compound 4 (0.25–5 µM), compound 5 (0.5–25 µM), compound 6 (50–1000 nM), compound 7 (10–250 nM), compound 8 (0.25–5 µM), compound 9 (10–250 nM), compound 10 (0.5–25 µM), compound 13 (0.5–10 µM), compound 14 (1–25 µM), and compound 15 (10–250 nM). […] After treatment, MTT was added to each well in a final concentration of 0.2 mg/mL for 4 h. Formazan product was dissolved in 200 µl of DMSO, and the absorbance was measured at 540 nm using an automatic LKB 5060-006 Micro Plate Reader (Vienna, Austria). IC50 value was defined as a concentration of the drug that inhibited cell growth by 50% and was calculated by nonlinear regression analysis using GraphPad Prism 6.0 for Windows (La Jolla, CA, USA). Relative selectivity towards cancer cells was calculated as a relation between IC50 value obtained in MRC-5 cells and an average IC50 value from four tested cancer cell lines.
Background: Tetrazolium dyes change colour on reduction, which living cells bring about.

For data set [1], the system named is NCI-H460, NCI-H460/R, DLD1, DLD1-TxR cells. The data set is described as follows: MTT assay, grouping of inhibitors by IC50 over the cancer cell lines. Format: cell-based. Particulars: Homo sapiens, Figure 2b, read-out: IC50 values (grouping for Pearson correlation). The method, then:
When the IC50 values obtained by the MTT assay were compared to Hsp90 affinity binding IC50 values (Table 1), a positive Pearson correlation (r > 0.5) was found for all cancer cell lines (Figure 2b).
as §1

Another data set deals with P-gp expression. The data set is described as follows: Flow cytometric analysis of P-gp expression. Format: cell-based, human. To be noted: 72 h; for Change in P-gp expression, DLD1 / Change in P-gp expression, NCI-H460: 5 µM 5, 200 nM 7, 100 nM 9, 10 nM TQ, 50 nM DOX, 50 nM PTX. The method, then:
P-glycoprotein expression level in NCI-H460, NCI-H460/R, DLD1, and DLD1-TxR and cells was measured by flow cytometry. All cell lines were seeded in adherent 6-well plates and treated with Hsp90 inhibitors for 72 h at the following concentrations: 5 µM compound 5, 200 nM compound 7, 100 nM compound 9 (NCI-H460 and DLD1), and 10 µM compound 5, 500 nM compound 7, 500 nM compound 9 (NCI-H460/R and DLD1-TxR). Cells were also treated with 10 nM TQ, a non-competitive P-gp inhibitor, which served as a positive control. In addition, sensitive cells (NCI-H460 and DLD1) were treated with 50 nM DOX and 50 nM PTX that served as positive controls for the induction of P-gp expression. Then, cells were collected by trypsinization, washed with PBS, and directly immunostained by FITC-conjugated anti-P-gp antibody according to the manufacturer’s protocol. The samples were kept in the dark until the analysis on CyFlow Space Partec flow cytometer (Sysmex Partec GmbH, Görlitz, Germany). The fluorescence of FITC-conjugated anti-P-gp was detected on fluorescence channel 1 (FL1-H) at 530 nm. A minimum of 10,000 events were collected for each sample (the gate excluded cell debris and dead cells) and the obtained results were analyzed with Summit software v4.3 (Dako Colorado Inc., Fort Collins, CO, USA).

“Also recorded” adds a separate entry of the source. Bounds are passed on as bounds.

Chain of P-gp (P08183 whole entry): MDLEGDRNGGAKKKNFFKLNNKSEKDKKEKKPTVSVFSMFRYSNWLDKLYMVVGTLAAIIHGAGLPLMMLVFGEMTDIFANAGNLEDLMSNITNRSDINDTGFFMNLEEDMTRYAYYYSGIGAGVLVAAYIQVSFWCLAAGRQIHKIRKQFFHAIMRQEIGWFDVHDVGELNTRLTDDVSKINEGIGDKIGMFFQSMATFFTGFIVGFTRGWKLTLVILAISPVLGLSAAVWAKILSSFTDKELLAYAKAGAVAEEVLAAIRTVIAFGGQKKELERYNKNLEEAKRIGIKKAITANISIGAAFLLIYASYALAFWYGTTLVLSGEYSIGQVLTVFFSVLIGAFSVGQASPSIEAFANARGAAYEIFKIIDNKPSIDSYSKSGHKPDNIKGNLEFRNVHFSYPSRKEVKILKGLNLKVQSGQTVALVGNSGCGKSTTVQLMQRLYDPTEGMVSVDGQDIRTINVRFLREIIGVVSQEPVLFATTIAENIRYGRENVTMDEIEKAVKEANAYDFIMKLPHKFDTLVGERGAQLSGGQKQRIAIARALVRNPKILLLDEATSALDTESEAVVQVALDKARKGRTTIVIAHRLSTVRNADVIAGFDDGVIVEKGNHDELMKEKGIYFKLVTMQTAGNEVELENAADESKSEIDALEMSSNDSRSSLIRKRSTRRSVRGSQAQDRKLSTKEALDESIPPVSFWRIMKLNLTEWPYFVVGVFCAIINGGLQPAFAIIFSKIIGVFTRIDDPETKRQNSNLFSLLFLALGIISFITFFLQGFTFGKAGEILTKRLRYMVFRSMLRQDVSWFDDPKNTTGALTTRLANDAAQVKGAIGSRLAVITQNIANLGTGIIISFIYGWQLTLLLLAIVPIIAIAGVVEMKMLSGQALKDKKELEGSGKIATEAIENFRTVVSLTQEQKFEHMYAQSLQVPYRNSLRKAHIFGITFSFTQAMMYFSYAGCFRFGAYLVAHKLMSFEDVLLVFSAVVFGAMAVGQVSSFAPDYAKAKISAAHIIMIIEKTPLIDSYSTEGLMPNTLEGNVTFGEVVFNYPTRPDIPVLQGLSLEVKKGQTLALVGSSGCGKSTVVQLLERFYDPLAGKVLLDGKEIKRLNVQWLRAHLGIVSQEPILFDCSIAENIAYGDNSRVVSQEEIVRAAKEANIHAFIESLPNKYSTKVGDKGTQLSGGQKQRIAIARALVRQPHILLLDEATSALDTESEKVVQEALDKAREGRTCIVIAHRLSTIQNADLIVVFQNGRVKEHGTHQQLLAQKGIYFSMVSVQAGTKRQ

For `O=C1c2ccccc2C(=O)c2c(-c3ccncc3)noc21` [Compound 7], the IC50 with Hsp90 is 390 nM. Moreover, on P-gp, the “P-gp activity / Rho 123 accumulation” value is listed as “most prominent effect in both MDR cell lines”. Moreover, in the data set on MRC-5 cells, the IC50 came out at 599 ± 15 nM and the “Relative Selectivity” value is recorded as 3.31. The IC50 in data set [1] was less than 1000 nM. Moreover, in the data set on P-gp expression, the “Change in P-gp expression, DLD1” value is reported as “did not change P-gp expression” and the “Change in P-gp expression, NCI-H460” value is “did not change P-gp expression”.
For `O=C1c2ccccc2C(=O)c2c(-c3ccccc3O)noc21` [Compound 5], in the data set with Hsp90, the IC50 was 1550 nM. Moreover, the “P-gp activity / Rho 123 accumulation” value at P-gp is reported as “significant beneficial effect on P-gp inhibition; also recorded: most prominent effect in both MDR cell lines”. In the data set on MRC-5 cells, the IC50 stood at 128000 ± 39000 nM and the “Relative Selectivity” value stood at 10.64. For the same compound, the IC50 in data set [1] was no less than 1000 nM. In addition, in the data set on P-gp expression, the “Change in P-gp expression, DLD1” value is “did not change P-gp expression” and the “Change in P-gp expression, NCI-H460” value was “did not change P-gp expression”. Also, the “Change in P-gp expression, NCI-H460/R” value with P-gp expression (10 µM 5, 500 nM 7, 500 nM 9, 10 nM TQ) is given as “significantly increased P-gp expression”.
For `O=C1c2ccccc2C(=O)c2c(-c3cccnc3)noc21` [Compound 9], the IC50 in the data set with Hsp90 was 540 nM. Also, the “P-gp activity / Rho 123 accumulation” value on P-gp was “most prominent effect in both MDR cell lines”. For the same compound, in the data set on MRC-5 cells, the IC50 was 302 ± 8 nM and the “Relative Selectivity” value was determined as 3.33. Moreover, in data set [1], the IC50 is less than 1000 nM. Further, in the data set on P-gp expression, the “Change in P-gp expression, DLD1” value is on record as “did not change P-gp expression” and the “Change in P-gp expression, NCI-H460” value is “did not change P-gp expression”.
